Results from ChEMBL document CHEMBL3217516, “Library synthesis and cytotoxicity of a family of 2-phenylacrylonitriles and discovery of an estrogen dependent breast cancer lead compound” (Medchemcomm, 2011).

Assays:
HT-29 [1] = assay: Cytotoxicity against human HT-29 cells after 72 hrs by MTT assay; format: functional; settings: HT-29, 72 h
SW480 [2] = assay: Cytotoxicity against human SW480 cells after 72 hrs by MTT assay; format: functional; settings: SW480, 72 h
MCF7 [3] = assay: Cytotoxicity against human MCF7 cells after 72 hrs by MTT assay; format: functional; settings: MCF7, 72 h
A2780 [4] = assay: Cytotoxicity against human A2780 cells after 72 hrs by MTT assay; format: functional; settings: A2780, 72 h
[5] = Cytotoxicity against human H460 cells after 72 hrs by MTT assay; format: functional; settings: NCI-H460, 72 h
A-431 = assay: Cytotoxicity against human A431 cells after 72 hrs by MTT assay; format: functional; settings: A-431, 72 h
DU-145 [6] = assay: Cytotoxicity against human DU145 cells after 72 hrs by MTT assay; format: functional; settings: DU-145, 72 h
[7] = Cytotoxicity against human BE(2)-C cells after 72 hrs by MTT assay; format: functional
[8] = Cytotoxicity against human SJ-G2 cells after 72 hrs by MTT assay; format: functional; settings: SJ-G2, 72 h
[9] = Cytotoxicity against human MIA cells after 72 hrs by MTT assay; format: functional
[10] = Cytotoxicity against human MCF10A cells after 72 hrs by MTT assay; format: cell-based, MCF-10A
[11] = Cytotoxicity against human MDA-MB-231 cells after 72 hrs by MTT assay; format: cell-based
MCF7 [12] = assay: Selectivity ratio of GI50 for human MDA-MB-231 cells to GI50 for human MCF7 cells; format: functional
[13] = Selectivity ratio of GI50 for human MCF10A cells to GI50 for human MCF7 cells; format: ADME, cell-based, MCF-10A; settings: MCF10A cells and MCF7 cells, read-out: RatioGI50
HT-29 [14] = assay: Selectivity ratio of GI50 for human H460 cells to GI50 for human HT29 cells; format: functional
SW480 [15] = assay: Selectivity ratio of GI50 for human H460 cells to GI50 for human SW480 cells; format: functional
A2780 [16] = assay: Selectivity ratio of GI50 for human H460 cells to GI50 for human A2780 cells; format: functional
[17] = Selectivity ratio of GI50 for human H460 cells to GI50 for human A431 cells; format: functional
DU-145 [18] = assay: Selectivity ratio of GI50 for human H460 cells to GI50 for human DU145 cells; format: functional
[19] = Selectivity ratio of GI50 for human H460 cells to GI50 for human BE(2)-C cells; format: functional
[20] = Selectivity ratio of GI50 for human H460 cells to GI50 for human SJ-G2 cells; format: functional
[21] = Selectivity ratio of GI50 for human H460 cells to GI50 for human MIA cells; format: functional
DU-145 [22] = assay: Selectivity ratio of GI50 for human DU145 cells to GI50 for human HT29 cells; format: functional
SW480 [23] = assay: Selectivity ratio of GI50 for human DU145 cells to GI50 for human SW480 cells; format: functional
A2780 [24] = assay: Selectivity ratio of GI50 for human DU145 cells to GI50 for human A2780 cells; format: functional
DU-145 [25] = assay: Selectivity ratio of GI50 for human DU145 cells to GI50 for human H460 cells; format: functional
DU-145 [26] = assay: Selectivity ratio of GI50 for human DU145 cells to GI50 for human A431 cells; format: functional
DU-145 [27] = assay: Selectivity ratio of GI50 for human DU145 cells to GI50 for human BE(2)-C cells; format: functional
DU-145 [28] = assay: Selectivity ratio of GI50 for human DU145 cells to GI50 for human SJ-G2 cells; format: functional
DU-145 [29] = assay: Selectivity ratio of GI50 for human DU145 cells to GI50 for human MIA cells; format: functional
MCF7 [30] = assay: Selectivity ratio of GI50 for human HT29 cells to GI50 for human MCF7 cells; format: functional
MCF7 [31] = assay: Selectivity ratio of GI50 for human SW480 cells to GI50 for human MCF7 cells; format: functional
A2780 [32] = assay: Selectivity ratio of GI50 for human A2780 cells to GI50 for human MCF7 cells; format: functional
MCF7 [33] = assay: Selectivity ratio of GI50 for human H460 cells to GI50 for human MCF7 cells; format: functional
MCF7 [34] = assay: Selectivity ratio of GI50 for human A431 cells to GI50 for human MCF7 cells; format: functional
DU-145 [35] = assay: Selectivity ratio of GI50 for human DU145 cells to GI50 for human MCF7 cells; format: functional
MCF7 [36] = assay: Selectivity ratio of GI50 for human BE(2)-C cells to GI50 for human MCF7 cells; format: functional
MCF7 [37] = assay: Selectivity ratio of GI50 for human SJ-G2 cells to GI50 for human MCF7 cells; format: functional
MCF7 [38] = assay: Selectivity ratio of GI50 for human MIA cells to GI50 for human MCF7 cells; format: functional

Compound | GI50 (HT-29 [1]) | GI50 (SW480 [2]) | GI50 (MCF7 [3]) | GI50 (A2780 [4]) | GI50 [5] | GI50 (A-431) | GI50 (DU-145 [6]) | GI50 [7] | GI50 [8] | GI50 [9] | GI50 at 72 h [10] | GI50 at 72 h [11] | RatioGI50 (MCF7 [12]) | selectivity ratio [13] | further results
N#C/C(=C\c1ccc[nH]1)c1ccc(Cl)c(Cl)c1 | 15 µM | 23 µM | 0.56 µM | 16 µM | 5.7 µM | 3.2 µM | 41 µM | 25 µM | 20 µM | 46 µM | 28 µM | 46 µM | 268 | 126 | 
N#C/C(=C\c1cccc(Cl)c1)c1ccc(Cl)c(Cl)c1 | 8.4 µM | 8.9 µM | 7.2 µM | 11 µM | 40 µM | 16 µM | 55 µM | 12 µM | 12 µM | 15 µM |  |  |  |  | RatioGI50 (HT-29 [14]): 5; RatioGI50 (SW480 [15]): 5; RatioGI50 (A2780 [16]): 5; RatioGI50 [17]: 5; RatioGI50 (DU-145 [18]): 5; RatioGI50 [19]: 5; RatioGI50 [20]: 5; RatioGI50 [21]: 5; RatioGI50 (DU-145 [22]): 5; RatioGI50 (SW480 [23]): 5; RatioGI50 (A2780 [24]): 5; RatioGI50 (DU-145 [25]): 5; RatioGI50 (DU-145 [26]): 5; RatioGI50 (DU-145 [27]): 5; RatioGI50 (DU-145 [28]): 5; RatioGI50 (DU-145 [29]): 5
N#C/C(=C\c1ccc([N+](=O)[O-])cc1)c1ccc(Cl)c(Cl)c1 |  |  |  |  |  |  |  |  |  | 27 µM | 16 µM | 34 µM | 268 | 126 | RatioGI50 (MCF7 [30]): 25; RatioGI50 (MCF7 [31]): 543; RatioGI50 (A2780 [32]): 543; RatioGI50 (MCF7 [33]): 543; RatioGI50 (MCF7 [34]): 543; RatioGI50 (DU-145 [35]): 543; RatioGI50 (MCF7 [36]): 543; RatioGI50 (MCF7 [37]): 543; RatioGI50 (MCF7 [38]): 543
